# Data taken from patent US11505558B1, “Antiviral heterocyclic compounds” (Enanta Pharmaceuticals, Inc., priority 2019, dated 2022).
# Tested on: genotype A, "Long" strain RSV
# Assay: RSV-A assay (CPE, ATPlite readout in Hep-2 cells)
# Assay type: cell-based
# Details: human respiratory syncytial virus, HEp-2, Hep-2 cells, genotype A "Long" strain RSV, MOI 0.1; read-out: Human RSV-A (“Long” strain) EC50
# How it was run: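 Hep-2 cells (8,000/well) received 2-fold serial compound dilutions in duplicate and RSV Long strain at MOI 0.1. After 5 days' incubation, cell health was read as ATP by ATPlite luminescence, with virus-only and uninfected controls defining max and minimum CPE; EC50 reported.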
row,SMILES,EC50 [nM]
1,COc1cc(C(=O)NC[C@](O)(c2cc3c(c(-c4ccc(Cl)c(F)c4)n2)OC[C@]3(C)C(N)=O)C(F)(F)F)cc2sc(N)nc12 [Example 434],< 200
2,Cc1ncccc1-c1ccc(C(=O)NC[C@](O)(c2cc3c(c(-c4ccc(F)cc4)n2)OC[C@]3(C)C(N)=O)C(F)(F)F)cc1OC1CC1 [Example 144],> 200
3,COc1cc(C(=O)NC[C@](O)(c2cc3c(c(-c4ccc(F)cc4)n2)OC[C@]3(C)C(N)=O)C(F)(F)F)cc2cc(S(C)(=O)=O)cnc12 [Example 649],> 200
4,Cc1cnc2c(O)cc(C(=O)NC[C@](O)(c3cc4c(c(-c5ccc(F)cc5)n3)OC[C@]4(C)C(N)=O)C3CC3)cc2c1 [Example 254],< 200
5,C[C@]1(C(N)=O)COc2c1cc([C@@](O)(CNC(=O)c1cc(NC(=O)N3CCC3)c3ncccc3c1)C(F)(F)F)nc2-c1ccc(F)cc1 [Example 410],< 200
6,C[C@]1(C(N)=O)COc2c1cc([C@@](O)(CNC(=O)c1ccc(-c3cscn3)c(OC3CC3)c1)C(F)(F)F)nc2-c1ccc(F)cc1 [Example 174],> 200
7,C[C@]1(C(N)=O)COc2c1cc([C@@](O)(CNC(=O)c1cncc(C(N)=O)c1)C(F)(F)F)nc2-c1ccc(F)cc1 [Example 296],> 200
8,COc1cc(C(=O)NC[C@](O)(c2cc3c(c(-c4ccc(F)cc4)n2)OC[C@]3(C)C(N)=O)C(F)(F)F)ccc1-c1conc1C [Example 186],< 200
9,C[C@]1(C(N)=O)COc2c1cc([C@@](O)(CNC(=O)c1cc(NC(=O)NC3COC3)c3ncccc3c1)C(F)(F)F)nc2-c1ccc(F)cc1 [Example 414],< 200
10,Cc1cc(C)nc(Nc2cc(C(=O)NC[C@](O)(c3cc4c(c(-c5ccc(F)cc5)n3)OC[C@]4(C)C(N)=O)C(F)(F)F)cc3cccnc23)n1 [Example 344],< 200
11,C[C@]1(C(N)=O)COc2c1cc([C@@](O)(CNC(=O)c1ccc3oc(=O)[nH]c3c1)C(F)(F)F)nc2-c1ccc(F)cc1 [Example 323],> 200
12,Cc1nc(COc2cc(C(=O)NC[C@](O)(c3cc4c(c(-c5ccc(F)cc5)n3)OC[C@]4(C)C(N)=O)C(F)(F)F)cc3cccnc23)co1 [Example 391],> 200
13,COc1cc(C(=O)NC[C@](O)(c2cc3c(c(-c4ccc(F)cc4)n2)OC[C@]3(C)C(N)=O)C(F)(F)F)cc2cccnc12 [Example 28],< 200
14,C[C@]1(C(N)=O)COc2c1cc([C@@](O)(CNC(=O)c1cncnc1)C(F)(F)F)nc2-c1ccc(F)cc1 [Example 298],> 200
15,C[C@]1(C(N)=O)COc2c1cc([C@@](O)(CNC(=O)c1ccc3c(Cl)nccc3c1)C(F)(F)F)nc2-c1ccc(F)cc1 [Example 247],< 200
16,C[C@]1(C(N)=O)COc2c1cc([C@@](O)(CNC(=O)c1cnc3cnccc3c1)C(F)(F)F)nc2-c1ccc(F)cc1 [Example 244],> 200
17,COc1cc(C(=O)NC[C@](O)(c2cc3c(c(-c4ccc(F)cc4)n2)OC[C@]3(C)CNC(=O)C2CC2)C(F)(F)F)ccc1OCCO [Example 9],< 200
18,COc1cc(C(=O)NC[C@](O)(c2cc3c(c(-c4ccc(F)cc4)n2)OC[C@]3(C)C(N)=O)C(F)(F)F)cc2ccc(C(F)(F)F)nc12 [Example 224],> 200
19,COc1cc(C(=O)NC[C@](O)(c2cc3c(c(C#Cc4ccc(F)c(Cl)c4)n2)OC[C@]3(C)C(N)=O)C(F)(F)F)ccc1OC1CC1 [Example 512],> 200
20,COc1cc(C(=O)NC[C@](O)(c2cc3c(c(-c4ccc(F)cc4)n2)OC[C@]3(C)C(N)=O)C(F)(F)F)cc2cc3c(nc12)CCCC3 [Example 612],< 200
21,CC(C)(O)C(F)(F)CNC(=O)[C@@]1(C)COc2c1cc([C@@](O)(CNC(=O)c1cc(OC3CC3)c3ncccc3c1)C(F)(F)F)nc2-c1ccc(F)cc1 [Example 488],< 200
22,C[C@]1(C(N)=O)COc2c1cc([C@@](O)(CNC(=O)c1cc(NC(=O)NC3CNC3)c3ncccc3c1)C(F)(F)F)nc2-c1ccc(F)cc1 [Example 413],> 200
23,CO[C@@H](C)COc1cc(C(=O)NC[C@](O)(c2cc3c(c(-c4ccc(F)cc4)n2)OC[C@]3(C)C(N)=O)C(F)(F)F)cc2cccnc12 [Example 286],> 200
24,COc1cc(C(=O)NC[C@](O)(c2cc3c(c(-c4ccc(F)cc4)n2)OC[C@]3(C)C(N)=O)C(F)(F)F)ccc1F [Example 316],> 200
25,C[C@]1(C(N)=O)COc2c1cc([C@@](O)(CNC(=O)c1cnc3ncccc3c1)C(F)(F)F)nc2-c1ccc(F)cc1 [Example 239],< 200
26,COc1cc(C(=O)NC[C@](O)(c2cc3c(c(-c4ccc(F)cc4)n2)OC[C@]3(C)C(=O)NC2CC2)C(F)(F)F)ccc1OCCO [Example 10],< 200

# More lines, now with the values ahead:
row,EC50 [nM],SMILES
1,> 200,COc1ccc2[nH]nc(C(=O)NC[C@](O)(c3cc4c(c(-c5ccc(F)cc5)n3)OC[C@]4(C)C(N)=O)C(F)(F)F)c2c1 [Example 586]
2,> 200,C[C@]1(C(N)=O)COc2c1cc([C@@](O)(CNC(=O)c1cc(OC3CC3)c3nc(C(F)(F)F)ccc3c1)C(F)(F)F)nc2-c1ccc(F)cc1 [Example 225]
3,> 200,C[C@]1(C(N)=O)COc2c1cc([C@@](O)(CNC(=O)c1ccc(OC3CC3)c(N3CCCCC3)c1)C(F)(F)F)nc2-c1ccc(F)cc1 [Example 134]
4,< 200,COc1cc(C(=O)NC[C@](O)(c2cc3c(c(-c4ccc(F)cc4)n2)OC[C@]3(C)C(=O)NC23CC(F)(C2)C3)C(F)(F)F)cc2cccnc12 [Example 55]
5,< 200,C[C@]1(C(N)=O)COc2c1cc([C@@](O)(CNC(=O)c1ccc(OC3CC3)c(-c3ccccn3)c1)C(F)(F)F)nc2-c1ccc(F)cc1 [Example 106]
6,> 200,C[C@]1(C(N)=O)COc2c1cc([C@@](O)(CNC(=O)c1cc3ccccc3cn1)C(F)(F)F)nc2-c1ccc(F)cc1 [Example 236]
7,< 200,COc1cc(C(=O)NC[C@](O)(c2cc3c(c(-c4ccc(F)cc4)n2)OC[C@]3(C)C(N)=O)C(F)(F)F)cc2c1NC(=O)CC2 [Example 60]
8,> 200,Cc1ccc(-c2cc(C(=O)NC[C@](O)(c3cc4c(c(-c5ccc(F)cc5)n3)OC[C@]4(C)C(N)=O)C(F)(F)F)ccc2OC2CC2)nc1 [Example 107]
9,< 200,COc1cc(C(=O)NC[C@](O)(c2cc3c(c(-c4ccc(F)cc4)n2)OC[C@]3(C)CNC2CC2)C(F)(F)F)cc2cccnc12 [Example 23]
10,< 200,CCn1cc2cc(C(=O)NC[C@](O)(c3cc4c(c(-c5ccc(F)cc5)n3)OC[C@]4(C)C(N)=O)C(F)(F)F)ccc2n1 [Example 655]
11,< 200,C[C@]1(C(N)=O)COc2c1cc([C@@](O)(CNC(=O)c1cc(-c3ccncc3)c3ncccc3c1)C(F)(F)F)nc2-c1ccc(F)cc1 [Example 351]
12,< 200,C[C@]1(C(N)=O)COc2c1cc([C@@](O)(CNC(=O)c1cc(-c3ccccn3)c3ncccc3c1)C(F)(F)F)nc2-c1ccc(F)cc1 [Example 353]
13,> 200,Cc1ncc(-c2ccc(C(=O)NC[C@](O)(c3cc4c(c(-c5ccc(F)cc5)n3)OC[C@]4(C)C(N)=O)C(F)(F)F)cc2OC2CC2)s1 [Example 176]
14,< 200,C[C@]1(C(N)=O)COc2c1cc([C@@](O)(CNC(=O)c1ccc(OC3CC3)c(-c3cncnc3)c1)C(F)(F)F)nc2-c1ccc(F)cc1 [Example 78]
15,< 200,Cc1ncc(C(=O)Nc2cc(C(=O)NC[C@](O)(c3cc4c(c(-c5ccc(F)cc5)n3)OC[C@]4(C)C(N)=O)C(F)(F)F)cc3cccnc23)[nH]1 [Example 402]
16,< 200,COc1ccc(C(=O)NC[C@](O)(c2cc3c(c(-c4ccc(F)cc4)n2)OC[C@]3(C)C(N)=O)C(F)(F)F)cc1C#N [Example 319]
17,> 200,C[C@]1(CNCC2CC2)COc2c1cc([C@@](O)(CNC(=O)c1ccc3c(c1)OCCN3)C(F)(F)F)nc2-c1ccc(F)cc1 [Example 38]
18,> 200,C[C@]1(C(N)=O)COc2c1cc([C@@](O)(CNC(=O)c1ccc(-c3ccc(C(F)(F)F)nc3)c(OC3CC3)c1)C(F)(F)F)nc2-c1ccc(F)cc1 [Example 147]
19,> 200,C[C@]1(C(=O)NCCNC(N)=O)COc2c1cc([C@@](O)(CNC(=O)c1cc(OC3CC3)c3ncccc3c1)C(F)(F)F)nc2-c1ccc(F)cc1 [Example 478]
20,< 200,C[C@]1(C(N)=O)COc2c1cc([C@@](O)(CNC(=O)c1ccc3nc(N)oc3c1)C(F)(F)F)nc2-c1ccc(F)c(Cl)c1 [Example 426]
21,> 200,Cn1c(=O)oc2ccc(C(=O)NC[C@](O)(c3cc4c(c(-c5ccc(F)cc5)n3)OC[C@]4(C)C(N)=O)C(F)(F)F)cc21 [Example 328]
22,< 200,C[C@]1(C(N)=O)COc2c1cc([C@@](O)(CNC(=O)c1ccc3[nH]ccc3c1)C(F)(F)F)nc2-c1ccc(F)cc1 [Example 311]
23,< 200,CNC(=O)CCNC(=O)[C@@]1(C)COc2c1cc([C@@](O)(CNC(=O)c1cc(OC3CC3)c3ncccc3c1)C(F)(F)F)nc2-c1ccc(F)cc1 [Example 474]
24,> 200,COCCNC(=O)COc1cc(C(=O)NC[C@](O)(c2cc3c(c(-c4ccc(F)cc4)n2)OC[C@]3(C)C(N)=O)C(F)(F)F)cc2cccnc12 [Example 375]
25,< 200,CN1Cc2cc(C(=O)NC[C@](O)(c3cc4c(c(-c5ccc(F)c(Cl)c5)n3)OC[C@]4(C)C(N)=O)C(F)(F)F)ccc2C1=O [Example 646]
26,< 200,Cc1cnc2c(NC(=O)NNC3CC3)cc(C(=O)NC[C@](O)(c3cc4c(c(-c5ccc(F)cc5)n3)OC[C@]4(C)C(N)=O)C(F)(F)F)cc2c1 [Example 631]
27,> 200,COc1cc(C(=O)NC[C@](O)(c2cc3c(c(-c4ccc(F)cc4)n2)OC[C@]3(C)C(N)=O)C(F)(F)F)ccc1-c1coc(C)n1 [Example 197]
28,< 200,C[C@]1(C(N)=O)COc2c1cc([C@@](O)(CNC(=O)c1cc(Nc3ccncn3)c3ncccc3c1)C(F)(F)F)nc2-c1ccc(F)cc1 [Example 343]
29,> 200,C[C@]1(CNCC2CC2)COc2c1cc([C@@](O)(CNC(=O)c1ccc(OC(F)F)c(O)c1)C(F)(F)F)nc2-c1ccc(F)cc1 [Example 42]
30,< 200,Cn1ncc2cc(C(=O)NC[C@](O)(c3cc4c(c(-c5ccc(F)cc5)n3)OC[C@]4(C)C(N)=O)C(F)(F)F)ccc21 [Example 591]
